Values quoted from earlier work, collected in patent EP2103596A1, “Process for the preparation of N-(phenylethyl) anilines salts and solvates thereof useful as serotonin 5-HT6 antagonists” (priority 2008, dated 2009).
Like-named read-outs stand apart in the source and are kept apart here.

Experiments:
[1] = target: CYP2D6 (Homo sapiens, UniProt P10635)
[2] = rats, sub-chronic dosing (10 and 30 mg/kg qd, i.p.)
[3] = tested on: more than 70 tested receptors; details: selectivity versus more than 70 tested receptors
[4] = mice, sub-chronic dosing (10 and 30 mg/kg qd, i.p.)

Sequence of CYP2D6 (P10635 whole entry): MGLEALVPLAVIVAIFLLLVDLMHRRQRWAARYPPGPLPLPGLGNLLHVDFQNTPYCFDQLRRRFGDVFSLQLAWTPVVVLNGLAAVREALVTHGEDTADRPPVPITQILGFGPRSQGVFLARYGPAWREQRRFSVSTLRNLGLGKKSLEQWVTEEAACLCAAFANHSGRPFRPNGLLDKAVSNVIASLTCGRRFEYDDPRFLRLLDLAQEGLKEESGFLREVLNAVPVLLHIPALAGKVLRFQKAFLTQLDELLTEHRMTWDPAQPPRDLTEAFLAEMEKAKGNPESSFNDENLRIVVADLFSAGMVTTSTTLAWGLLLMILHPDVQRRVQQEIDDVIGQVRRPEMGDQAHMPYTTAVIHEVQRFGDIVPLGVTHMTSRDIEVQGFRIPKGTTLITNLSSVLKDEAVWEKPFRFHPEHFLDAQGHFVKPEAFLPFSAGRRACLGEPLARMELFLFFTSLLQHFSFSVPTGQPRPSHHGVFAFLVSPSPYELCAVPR

COc1cc(Cl)cc(C(C)Nc2cc(N3CCNCC3)ccc2S(C)(=O)=O)c1OC.Cl (stereo not shown) [Compound A, [1-(5-Chloro-2,3-dimethoxy-phenyl)-ethyl]-(2-methanesulfonyl-5-piperazin-1-yl-phenyl)-amine hydrochloride salt]
stability (HLM): > 90 min | IC50 [1]: 7.8 µM | body weight [2]: significant reduction | food intake [2]: significant reduction | safety margin [3]: > 100 fold | body weight [4]: significant reduction | food intake [4]: significant reduction
